Measurements from article PMC9529985, “Eco-friendly methods of synthesis and preliminary biological evaluation of sulfonamide derivatives of cyclic arylguanidines” (Ultrasonics Sonochemistry, 2022).
Like-named read-outs stand apart in the source and are kept apart here. Values belong to the molecule of their own block, whether it stands above or below them.

Columns and labels:
[1] = tested on: human astrocytoma cell line 1321 N1; experiment: MTS cytotoxicity test in 1321 N1 astrocytoma cells; assay type: cell-based; settings: 1321 N1 cells; for concentration at which activity (statistically significant suppression of cell viability) was seen / IC50: MTS; for viability of the cells compared to vehicle control: 24 h exposure; for IC50: 50 % decrease relative to the maximum inhibition observed, read-out: IC50 (cell viability)
Method: (§1) The cytotoxic properties of newly synthetized compounds were assessed in human astrocytoma cell line 1321 N1 (RRID:CVCL_0110, European Collection of Authenticated Cell Cultures, ECACC:86030402) and human breast adenocarcinoma cell line MDA-MB-231 (RRID:CVCL_0062; ATCC:HTB-26). ECACC and ATCC perform thorough cell line authentication utilizing Short Tandem Repeat (STR) profiling. Upon receipt of the cell lines, the cells were expanded for a few passages to enable the generation of new frozen stocks. The cells were resuscitated as needed and used for<6 months after resuscitation (no>15 passages). Cell line 1321 N1 was cultured in high-glucose (4500 mg/L) Dulbecco's modified Eagle's medium (DMEM) supplemented with 10 % fetal bovine serum (FBS). The MDA-MB-231 cells were maintained in RPMI-1640 with 10 % FBS. All cell culture media were additionally fortified with penicillin (100 U/mL), streptomycin (100 µg/mL), and amphotericin B (250 ng/mL) to prevent bacterial and yeast contamination. The cell culture media and supplements used in this study were purchased from Sigma-Aldrich. The cells were maintained at 37 °C in a humidified 5 % incubator in an atmosphere of 5 % CO2 and 95 % air.
The cells were subcultured upon reaching the confluency of about 80 %. Cell detachment was facilitated with TrypLE solution (Thermo Fisher Scientific). The cells were counted in a Z2 particle counter (Beckman Coulter), then plated at 5,000 cells/well in 96-well plates (Eppendorf) in 100 µL of full growth medium and cultured overnight to enable cell attachment. Next day, the cells were subjected to either vehicle (0.1 % DMSO) or our compounds of interest for 24, 48, or 72 h. The assessment of cell viability was performed by adding 20 µL/well of the mixture of 3-(4,5-dimethylthiazol-2-yl)-5-(3-carboxymethoxyphenyl)-2-(4-sulfophenyl)–2H-tetrazolium, inner salt (MTS) and phenazine ethosulfate from Promega (#G3580). After 3 h of incubation, the absorbance was recorded at 490 nm using Synergy H1 plate reader (Biotek) The experiments were carried out in quadruplicates and were repeated three times. The obtained values were normalized to vehicle control and plotted.
The IC50 values were calculated with GraphPad Prism 8.0.1 software (nonlinear regression, log(inhibitor) vs normalized response) as the dose that causes a 50 % decrease in cell viability relative to the maximum inhibition observed. Statistical significance determination was evaluated with GraphPad Prism 5.0.1 software using one-way ANOVA, followed by Bonferroni’s comparison test (p < 0.05).

[2] = PAMPA passive permeability; assay type: in vitro ADME; settings: PBS pH 7.4, 5 h, room temperature
Method: The ADME-Tox parameters of 10f were analyzed according to described previously protocols, [45] and included: Parallel Artificial Membrane Permeability Assay (PAMPA) passive permeability testing, the influence on CYP3A4 activity, metabolic stability in mouse liver microsomes, and hepatotoxicity assessment with HepG2 cells. The pre-coated PAMPA Plate System Gentest was sourced from Corning (Tewksbury, MA, USA). […] The plate was incubated at room temperature for 5 h without stirring. Then, 50 μL was aspirated from both Acceptor (A) and Donor (D) wells and then diluted with a 50 µL solution of an internal standard (IS). The concentrations of the tested compounds in the A and D wells were estimated with an LC/MS Waters ACQUITY™ TQD system with the TQ Detector (Waters, Milford, USA). The Pe values were estimated according to the proper formulas provided by Corning and described previously in the literature.

[3] = Metabolic stability in mouse liver microsomes (MLMs); assay type: in vitro ADME; settings: for Metabolic pathway: metabolites identified by UPLC-MS; for remaining at 2 h, 50 µM: mouse, liver microsomes, MLMs 1 mg/ml
Method: The ADME-Tox parameters of 10f were analyzed according to described previously protocols, [45] and included: Parallel Artificial Membrane Permeability Assay (PAMPA) passive permeability testing, the influence on CYP3A4 activity, metabolic stability in mouse liver microsomes, and hepatotoxicity assessment with HepG2 cells.
The metabolic stability of 10f was estimated with mouse liver microsomes (MLMs) (Sigma-Aldrich, St. Louis, MO, USA). The tested compound (50 µM) was incubated in the presence of MLMs (1 mg/ml) for 120 min in a buffer (10 mM Tris–HCl buffer at 37 °C). Then, to terminate the reaction, cold methanol was added to the reaction mixture. The precipitated MLMs were centrifuged and the supernatant was analyzed with a LC/MS Waters ACQUITY™ TQD system with the TQ Detector (Waters, Milford, USA).

[4] = tested on: HepG2 human hepatoma cell line; experiment: Hepatotoxicity, MTS assay in HepG2 cells; assay type: cell-based; settings: 72 h (Fig. 6 legend)
Method: Hepatotoxicity was evaluated by means of an MTS assay described above (section 23) with a HepG2 human hepatoma cell line (ATCC:HB-8065), [48]. […] Compound 10f was tested in a single experiment in quadruplicate.

[5] = Metabolic stability in mouse liver microsomes (MLMs); assay type: in vitro ADME; settings: TRIS-HCl pH 7.4 buffer solution without microsomes, 120 min
[6] = tested on: human breast adenocarcinoma cell line MDA-MB-231; experiment: MTS cytotoxicity test in MDA-MB-231 cells; assay type: cell-based; settings: 24 h, read-out: IC50 (cell viability)
Method: as §1, with “All cell culture media were additionally fortified with penicillin (100 U/mL), streptomycin (100 µg/mL), and amphotericin B (250 ng/mL) to prevent bacterial and yeast contamination. The cell culture media and supplements used in this study were purchased from Sigma-Aldrich. The cells were maintained at 37 °C in a humidified 5 % incubator in an atmosphere of 5 % CO2 and 95 % air.” left out
The cells were subcultured upon reaching the confluency of about 80 %. […] The cells were counted in a Z2 particle counter (Beckman Coulter), then plated at 5,000 cells/well in 96-well plates (Eppendorf) in 100 µL of full growth medium and cultured overnight to enable cell attachment. […] After 3 h of incubation, the absorbance was recorded at 490 nm using Synergy H1 plate reader (Biotek) The experiments were carried out in quadruplicates and were repeated three times. […]

Compound: O=S(=O)(Nc1ncc2ccccc2n1)c1cccc2ccccc12 [Dehydrogenated-10f, N-(quinazolin-2-yl)naphthalene-1-sulfonamide]
Metabolic pathway ([3]; MLMs): double hydroxylation
remaining at 2 h, 50 µM ([3]; 120 min): 17.5%

Compound: Cn1c(=O)c2c(ncn2C)n(C)c1=O [caffeine, reference compound]
permeability coefficient Pe ([2]; 200 µM): 12.2 ± 0.9 × 10^-6 cm/s

Compound: COc1cccc2c1C(=O)c1c(O)c3c(c(O)c1C2=O)C[C@@](O)(C(=O)CO)C[C@@H]3O[C@H]1C[C@H](N)[C@H](O)[C@H](C)O1 [doxorubicin, reference compound]
viability of the cells compared to vehicle control [1]: 47.5%
IC50 ([1]; Homo sapiens, 24 h): 1100 nM
IC50 [6]: 1400 nM

Now from value to molecule, other results behind:

melting point: > 300 °C
Compound: O=S(=O)(Nc1nc2ccccc2[nH]1)c1ccccc1 [10a, N-(1H-benzimidazol-2-yl)benzenesulfonamide]

melting point: 182 to 186 °C
Compound: O=S(=O)(NC1=NCc2ccccc2N1)c1ccccc1 [10e, N-(1,4-dihydroquinazolin-2-yl)benzenesulfonamide]

Papp at 5 h, 200 µM ([2]; read-out: permeability coefficient Pe): 5 ± 1.5 ×10⁻⁶ cm/s
metabolic stability (in words) ([3]; MLMs, 120 min): unstable
metabolized ([3]; MLMs, 120 min incubation, UPLC): 97%
remaining at 2 h, 50 µM ([3]; 120 min): 3%
dehydrogenation in control sample [5]: 5%
Compound: O=S(=O)(NC1=NCc2ccccc2N1)c1cccc2ccccc12 [10f, N-(1,4-dihydroquinazolin-2-yl)naphthalene-1-sulfonamide]
concentration at which activity (statistically significant suppression of cell viability) was seen ([1]; 24 h): 1 µM
viability of the cells compared to vehicle control [1]: 48.0%
IC50 ([1]; Homo sapiens, 24 h): 8220 nM
viability at 50 µM ([1]; Homo sapiens, 72 h, 50 µM, read-out: cells still viable): 32%
IC50 ([1]; Homo sapiens, 72 h): 130 nM
Metabolic pathway ([3]; MLMs): double hydroxylation and double bound reduction
hepatotoxicity (in words) ([4]; HepG2, 1–10 µM): did not exhibit hepatotoxic properties
effect on cell viability (in words) ([4]; HepG2, 50 or 100 µM): statistically significant decrease in cells viability

melting point: > 300 °C
Compound: O=S(=O)(NC1=NCc2ccccc2N1)c1ccc2ccccc2c1 [10g, N-(1,4-dihydroquinazolin-2-yl)naphthalene-2-sulfonamide]

melting point: 207 to 209 °C
Compound: O=S(=O)(NC1=NCc2cc(Cl)ccc2N1)c1ccc2ccccc2c1 [10h, N-(6-chloro-1,4-dihydroquinazolin-2-yl)naphthalene-2-sulfonamide]

melting point: 188 to 194 °C
Compound: Nc1nc2ccccc2n1S(=O)(=O)c1ccc2ccccc2c1 [11c, 1-(naphthalene-2-sulfonyl)-1H-benzimidazol-2-amine]

melting point: 225 to 229 °C
Compound: Nc1nc2cc(Cl)ccc2n1S(=O)(=O)c1cccc2ccccc12 [11d, 5-chloro-1-(naphthalene-1-sulfonyl)-1H-benzimidazol-2-amine]
concentration at which activity (statistically significant suppression of cell viability) was seen ([1]; 24 h): 1 µM
